# In patent US20210177879A1, “VITAMIN D RECEPTOR AGONIST” (Guanghzou University of Chinese Medicine, priority 2018, published 2021):
# Legend:
# [1] = tested on: AOM/DSS colon cancer model; test: AOM/DSS colon cancer model, Experiment 2 (colon length, thickness, tumors); type: in vivo, Balb/c mice; settings: 2 mg/kg once a day
# Method: Experimental method: 70 Balb/c mice of 6-8 weeks were purchased from the Experimental Animal Center in Guangzhou University of Chinese Medicine, weighed about 18-22 g, and subjected to adaptive feeding for 10 days. Modeling was divided into three stages. In the first stage, except for the normal group of animals being given saline injection, each of the other animals were intraperitoneally injected with a carcinogen AOM (10 mg/kg), and given free access to 2% DSS water from the next day for 7 days, and then given access to replaced regular drinking water for 14 days. In the second stage, the animals were given free access to 2% DSS water for 10 days, and then given access to replaced regular drinking water for 14 days. In the third stage, the animals were given free access to 2% DSS water for 10 days, and then given access to replaced regular drinking water for 11 days. The normal group was given access to regular drinking water throughout the experiment. The diet, water drinking and body weights of the animals were recorded daily and DAI scores were made, and the animals were killed and harvested at the 10th week. In this experiment, the animals were divided into groups and administrated on the first day of a modeling period of the second stage, where a total of 7 groups were set, each group including 10 animals. The first group was a blank control group (control) that was given access to drinking water by gavage; the second group was a model group (model), in which a total of 10 animals were given access to drinking water by gavage; the third group was a vitamin D3 positive administration control group (VD3, 0.2 mg/kg); and the fourth to seventh groups were given monotropein, desacetyl asperulosidic acid, asperuloside, and asperulosidic acid (groups labeled as: Mo, As, Aa, Da), respectively at a given dose of 2 mg/kg. Dosing was conducted once a day until the end of the experiment. At the end of the experiment, the animals were anesthetized and harvested, and the colon tissue was taken, measured with a ruler for the length, and measured with a vernier caliper for the thickness. The effects of monotropein, desacetyl asperulosidic acid, asperuloside and asperulosidic acid on expression of the vitamin D receptor were detected.
# [2] = tested on: transplanted tumor of SW1990 breast cancer cells; test: Transplanted tumor of SW1990 breast cancer cells in nude mice; type: in vivo; settings: 2 mg/kg in combination with 5-fluorouracil at half dose (20 mg/kg), once a day; effect comparable to 5-fluorouracil alone 40 mg/kg
# Method: (§1) The SW1990 cells were thawed, and cultured in a changed medium after 24 hours. Medium preparation method: 6% serum, 1% of a bispecific antibody+a 1640 basal medium. After grown to confluent, the cells were digested and subcultured to expand the number of cells. When reached the required amount, the cells were digested by trypsin, centrifuged, and resuspended in PBS to prepare a cell suspension of 1×10^8 cells/ml. A part of the cell suspension was added with the monotropein, desacetyl asperulosidic acid, asperuloside, and asperulosidic acid respectively, and the inhibition rate (%) of tumor cell proliferation by each of these different compounds was examined.
# (§2) Male adult nude mice, which had the body weights of 20-24 g, were purchased from Guangdong Medical Laboratory Animal Center. After 7 days of adaptive feeding of the animals, except for the blank group, the remaining animals were injected with 0.2 ml of a SW1990 cell suspension in PBS at ventrodorsal and scapula sites of them, the response conditions of the animals were observed, and the body weights of the animals were determined once a week. After 2 weeks of observation, the animals were grouped into the following groups according to tumor size: a blank group; a model group; a 5-fluorouracil control group (5-Full, 40 mg/kg); monotropein+5-fluorouracil (2 mg/kg monotropein+20 mg/kg 5-fluorouracil), desacetyl asperulosidic acid+5-fluorouracil (2 mg/kg desacetyl asperulosidic acid+20 mg/kg 5-fluorouracil), asperuloside+5-fluorouracil (2 mg/kg asperuloside+20 mg/kg 5-fluorouracil), asperulosidic acid+5-fluorouracil (2 mg/kg asperulosidic acid+20 mg/kg 5-fluorouracil), these groups being labeled as: Mo, As, Aa, Da. Each group included 8 animals; and administration was conducted once a day.
# (§3) The status, death conditions, and eating and drinking conditions of the animals were observed daily. The body weights of the animals were determined once a week and the tumor size of the animals was determined every 4 days. The tumor volume of the animals was determined by using a vernier caliper. After 1 month of administration, the animals were sacrificed after blood was sampled from the orbit thereof, and the tumor was separated and weighed.
# [3] = tested on: transplanted tumor of MB-231 pancreatic cancer cells; test: Transplanted tumor of MB-231 pancreatic cancer cells in nude mice; type: in vivo; settings: 2 mg/kg in combination with 5-fluorouracil at half dose (20 mg/kg), once a day; effect comparable to 5-fluorouracil alone 40 mg/kg
# Method: as §1, with “SMB-231 pancreatic cancer” for “SW1990”
# as §2, with “SMB-231 pancreatic cancer” for “SW1990”
# as §3
structure (smiles),measurement,setting,value
O=C(O)C1=CO[C@@H](O[C@@H]2O[C@H](CO)[C@@H](O)[C@H](O)[C@H]2O)[C@H]2[C@@H]1C=C[C@]2(O)CO [monotropein],incidence and development of colorectal cancers,[1],inhibiting the incidence and development of colorectal cancers
same,tumor proliferation in SW1990 tumor-bearing mice,[2],significantly inhibit tumor proliferation
same,tumor proliferation in SMB-231 tumor-bearing mice,[3],significantly inhibit tumor proliferation
